Experimental data published in patent EP4000606A1, “COMPOUNDS FOR CORONAVIRUS INFECTION TREATMENT AND/OR PREVENTION” (priority 2020, dated 2022).
Like-named read-outs stand apart in the source and are kept apart here.

Test system: SARS-CoV-2
Experiment: microbe, parasite or virus in culture
Type: cell-based
[1] = Severe acute respiratory syndrome coronavirus 2, 120 h
[2] = confluence of SARS-CoV-2 infected VeroE6-EGFP cells after test compound treatment compared to control wells, 5 days

Compound	Maximum confluence reached (%) (5 days)	other results
CC(C)c1cnn2c(NCc3ccccc3)cc(NCCCCCCN)nc12 [compound 48, N5-(6-Aminohexyl)-N7-benzyl-3-isopropylpyrazolo[1,5-a]pyrimidine-5,7-diamine]	47.31	
O=C(NCCN1CCC2(CC1)C(=O)NCN2c1cccc(F)c1)c1ccc2ccccc2c1 [compound 56, N-[2-[1-(3-Fluorophenyl)-4-oxo-1,3,8-triazaspiro[4.5]dec-8-yl]ethyl]naphthalen-2-carboxamide]	98.46	
CN1[C@@H]2CC[C@H]1C[C@@H](OC(=O)c1cc(Cl)cc(Cl)c1)C2 [compound 36, 1alphaH,3alpha,5alphaH-Tropan-3-yl-3,5-dichlorobenzoate; 3,5-Dichlorobenzoic acid endo-8-methyl-8-azabicyclo[3.2.1]oct-3-yl ester]	69.05	IC50 [1]: 43.9 µM
CN1CCN(CCCN2c3ccccc3Sc3ccc(C(F)(F)F)cc32)CC1.Cl.Cl [compound 94, 10-[3-(4-Methylpiperazin-1-yl)propyl]-2-(trifluoromethyl)-10H-phenothiazine dihydrochloride]	37.97	
O=C(C1CC1)N1CC[C@@H](Cc2n[nH]c(=O)n2-c2ccc(-c3ccc4ccoc4c3)cc2)C1 [compound 67, 4-[4-(1-Benzofuran-6-yl)phenyl]-5-[1-(cyclopropylcarbonyl)pyrrolidin-3(S)-ylmethyl]-3,4-dihydro-2H-1,2,4-triazol-3-one]	31.06	IC50 [1]: 17 µM
CC[C@@]1([C@@H]2O[C@@H]([C@H]3O[C@@](O)(COC(=O)Nc4ccccc4)[C@H](C)C[C@@H]3C)C[C@@H]2C)CC[C@H]([C@]2(C)CC[C@]3(C[C@H](O)[C@@H](C)[C@@H]([C@@H](C)[C@@H](OC)[C@H](C)C(=O)[O-])O3)O2)O1.[Na+] [compound 98, 4(S)-[(2S,5R,7S,8R,9S)-2-[(2S,2'R,3'S,5R,5'R)-2-Ethyl-5'-[6(R)-hydroxy-3(S),5(R)-dimethyl-6-(phenylaminocarbonyloxymethyl)tetrahydropyran-2(S)-yl]-3'-methylperhydro-2,2'-bifuran-5-yl]-9-hydroxy-2,8-dimethyl-1,6-dioxaspiro[4.5]dec-7-yl]-3(R)-methoxy-2(S)-methylpentanoic acid sodium salt]	38.24	IC50 [1]: 3.18 µM
COc1cc2c(N3CCN(C(=O)Nc4ccc(OC(C)C)cc4)CC3)ncnc2cc1OCCCN1CCCCC1 [compound 35, N-(4-Isopropoxyphenyl)-4-[6-methoxy-7-[3-(1-piperidinyl)propoxy]quinazolin-4-yl]piperazine-1-carboxamide]	80.09	
O=C(O)c1ccc(N2C(=O)C(=Cc3ccc(-c4ccc([N+](=O)[O-])cc4)o3)C=C2c2ccccc2)cc1 [compound 105, 4-[3-[5-(4-Nitrophenyl)furan-2-ylmethylene]-2-oxo-5-phenyl-2,3-dihydro-1H-pyrrol-1-yl]benzoic acid]	52.15	IC50 [1]: 236 µM
CC(C)(C)c1cc(C=C(C#N)C#N)cc(Br)c1O [compound 99, 2-(3-Bromo-5-tert-butyl-4-hydroxybenzylidene)propanedini trile 2-(3-Bromo-5-tert-butyl-4-hydroxybenzylidene)malononitrile]	37.27	IC50 [1]: 7.23 µM
C#CCC(Cc1cnc2nc(N)nc(N)c2n1)c1ccc(C(=O)N[C@@H](CCC(=O)O)C(=O)O)cc1 (stereo partly drawn) [compound 3, N-[4-[2-(2,4-Diaminopteridin-6-yl)-1-(2-propynyl)ethyl]benzoyl]-L-glutamic acid 10-Propargyl-10-deazaaminopterin]	76.65	
O=S(=O)(NCC1CC1)c1ccc(Nc2nccc(N3CCCc4cc(O)ccc43)n2)cc1 [compound 86, N-(Cyclopropylmethyl)-4-[[4-(3,4-dihydro-6-hydroxy-1(2H)-quinolinyl)-2-pyrimidinyl]amino]benzenesulfo namide]	55.04	
CCN(CC)CCOc1ccc2c(c1)C(=O)c1cc(OCCN(CC)CC)ccc1-2 [compound 84, 2,7-Bis[2-(diethylamino)ethoxy]-9H-fluoren-9-one]	68.89	
CN(Cc1cnc2nc(N)nc(N)c2n1)c1ccc(C(=O)N[C@@H](CCC(=O)O)C(=O)O)cc1 [compound 1, N-[4-[N-(2,4-Diaminopteridin-6-ylmethyl)-N-methylamino]benzoyl]-L-glutamic acid]		IC50 (Severe acute respiratory syndrome coronavirus 2, 120 h, half maximal concentration able to recover the cytopathic effect of infection, VeroE6-EGFP cells, 0.01 MOI, 5 days, 8 concentrations, read-out: IC50): 0.05 µM; Maximum confluence reached (%) [2]: 64%
CCN(CC)CCOc1ccc(C(=C(Cl)c2ccccc2)c2ccccc2)cc1.O=C(O)CC(O)(CC(=O)O)C(=O)O [compound 82, 2-[4-(2-Chloro-1,2-diphenylvinyl)phenoxy]-N,N-diethylethanamine citrate]	54.73	
(4R,4aS)-18-Ethenyl-4,4a-dihydro-3,4-bis(methoxycarbonyl)-4a,8,14,19-tetramethyl-24H,26H-benzo[b]porphine-9,13-dipropanoic acid monomethyl ester [compound 39]	89.5	IC50 (read-out: IC50): 30 µM
CN(C)CCC=C1c2ccccc2C=Cc2ccccc21.Cl [compound 90, 3-(5H-Dibenzo[a,d]cyclohepten-5-ylidene)-N,N-dimethylpropan-1-amine hydrochloride]		Maximum confluence reached (%): 70,19%; IC50 [1]: 12.1 µM

Compound	Maximum confluence reached (%) (5 days)	other results
Cc1ccc(NC(=O)Nc2cc(C(F)(F)F)ccc2F)cc1Nc1ccc2c(c1)NC(=O)C2=Cc1ccc[nH]1 [compound 92, 1-[2-Fluoro-5-(trifluoromethyl)phenyl]-3-[4-methyl-3-[2-oxo-3-(1H-pyrrol-2-ylmethylene)-2,3-dihydro-1H-indol-6-ylamino]phenyl]urea]	75.5	IC50 [1]: 5.23 µM
CC(C)(C)c1cc(C=C(C#N)C#N)cc(C(C)(C)C)c1O [compound 103, (3,5-Di-tert-butyl-4-hydroxybenzylidene)malononitrile]	51.51	IC50 [1]: 205 µM
CC(C)(C)c1cc(C=C(C#N)C#N)cc(C(C)(C)C)c1O [compound 66, (3,5-Di-tert-butyl-4-hydroxybenzylidene)malononitrile]	47.6	
N#Cc1cccc(C#N)c1-c1nc2c3ccc(Cl)cc3c3ccccc3c2[nH]1 [compound 64, 2-(6-Chloro-1H-phenanthro[9,10-d]imidazol-2-yl)benzene-1,3-dicarbonitrile]	98.48	
COc1cc2c(NC3CCN(C4CCCCC4)CC3)nc(N3CCCN(C(C)C)CC3)nc2cc1OCCCN1CCCCC1 [compound 59, N-(1-Cyclohexylpiperidin-4-yl)-6-methoxy-7-[3-(1-piperidinyl)propoxy]-2-[4-(propan-2-yl)perhydro-1,4-diazepin-1-yl]quinazolin-4-amine]	80.08	
Cl.O=C(c1c2ccccc2cc2ccccc12)N1CCC(N2CCC[C@@H](C(=O)N3CCOCC3)C2)CC1 [compound 101, 1-[1'-(Anthracen-9-ylcarbonyl)-1,4'-bipiperidin-3(R)-yl]-1-(4-morpholinyl)methanone hydrochloride]	50.88	
Oc1c(Cl)cc(Cl)cc1Sc1cc(Cl)cc(Cl)c1O [compound 102, 2,2'-Thio-bis(4,6-dichlorophenol), Bis(2-hydroxy-3,5-dichlorophenyl) sulfide]	31.25	
c1cncc(CN2CCC(n3ncc4c(N5CCOCC5)nc(-c5ccc6[nH]ccc6c5)nc43)CC2)c1 [compound 32, 6-(1H-Indol-5-yl)-4-(4-morpholinyl)-1-[1-(pyridin-3-ylmethyl)piperidin-4-yl]-1H-pyrazolo[3,4-d]pyrimidine]	67.69	
O=C(Nc1ccc(Cl)c(Cl)c1)Nc1ccc(Cl)c(Cl)c1 [compound 72, 1,3-Bis(3,4-dichlorophenyl)urea]	45.87	
Nc1ccc(C(=O)Nc2cccc(-c3nc(N4CCOCC4)c4oc5ncccc5c4n3)c2)cn1 [compound 104, 6-Amino-N-[3-[4-(4-morpholinyl)pyrido[3',2':4,5]furo [3,2-d]pyrimidin-2-yl]phenyl]pyridine-3-carboxamide]	35.48	
Cc1[nH]c(/C=C2\C(=O)Nc3ccc(S(=O)(=O)Cc4c(Cl)cccc4Cl)cc32)c(C)c1C(=O)N1CCC[C@@H]1CN1CCCC1 [compound 53, 5-(2,6-Dichlorobenzylsulfonyl)-3(Z)-[3,5-dimethyl-4-[2(R)-(pyrrolidin-1-ylmethyl)pyrrolidin-1-ylcarbonyl]-1H-pyrrol-2-ylmethylene]-2,3-dihydro-1H-indol-2-one]	95.69	
CC(C)C[C@H](NC(=O)CNC(=O)c1cc(Cl)ccc1Cl)B(O)O [compound 108, 1(R)-[2-(2,5-Dichlorobenzamido)acetamido]-3-methylbutylboronic acid]	30.79	IC50 [1]: 135 µM
C[C@@H]1COCCN1c1cc(=O)n2c(n1)N(Cc1cncc(Cl)c1)[C@H](C(F)(F)F)CC2 [compound 54, (8S)-9-[(5-Chloropyridin-3-yl)methyl]-2-[(3R)-3-methylmorpholin-4-yl]-8-(trifluoromethyl)-6,7,8,9-tetrahydro-4H-pyrimido[1,2-a]pyrimidin-4-one]		Maximum confluence reached (%) [2]: 89%
Cc1ccc(C(=O)Nc2cccc(C(F)(F)F)c2)cc1Nc1nc(-c2cccnc2)nc2c1cnn2C [compound 62, 4-methyl-3-{[1-methyl-6-(3-pyridinyl)-1H-pyrazolo[3,4-d]pyrimidin-4-yl]amino}-N-[3-(trifluoromethyl)phenyl]benzamide]		Maximum confluence reached (%): 88.43%
Nc1ncc(-c2ccnc(Nc3ccncc3)n2)c(CC2CC2)n1 [compound 20, 4'-(Cyclopropylmethyl)-N2-(pyridin-4-yl)-4,5'-bipyrimidine-2,2'-diamine]	98.17	
CCN(CC)CCO[C@H]1CC[C@@]2(C)C(=CC[C@@H]3[C@@H]2CC[C@]2(C)C(=O)CC[C@@H]32)C1.Cl [compound 80, 3beta-[2-(Diethylamino)ethoxy]androst-5-en-17-one hydrochloride]	44.66	
